From patent US12617777B2, “GPR84 antagonists and uses thereof” (Liminal BioSciences Limited, priority 2021, dated 2026) come the findings set out here.

Assay [1] concerns neutrophils. Kind of assay: Neutrophil migration assay (embelin as chemotactic agent, ATPlite readout). It is filed as cell-based. The conditions noted are these: for IC50: Neutrophil, human neutrophils, embelin as chemotactic agent, read-out: Human Neutrophil migration inhibition IC50; for Human Neutrophil migration inhibition - fold potency to Control Compound: normalized to GPR84 antagonist Control Compound (average IC50 131 nM). The method, then: Neutrophil migration assay. After isolation, neutrophils were resuspended in chemotaxis buffer (DMEM supplemented with 10 mM HEPES) at a concentration of 8.9×10^6 cells/ml. In a 96-well plate, 20 μl of compound solution in chemotaxis buffer is added to 180 μl of cell suspension. After incubation at 37° C. for 30 minutes, 75 μl of cell suspension is transferred in the upper chamber of a 5 μm pore size Corning HTS transwell. 235 μl of chemotaxis buffer containing the chemotactic agent (embelin) is added to the lower chamber of the transwell. After a 60-minute incubation time at 37° C. in 5%0 C02, the upper chamber of the transwell is removed and the plate is centrifuged at 1500 rpm for 6 minutes. Supermatant is removed and cells resuspended in 100 ul of PBS. ATP content was assessed using ATPlite Luminescence Assay System® according to manufacturer instructions (Perkin Elmer, Buckinghamshire, UK). Briefly, 50 μl of ATPlite buffer and 50 μl of lysis solution is added to the lower chamber of the Transwells. After incubation at room temperature, in the dark with constant agitation for 5 minutes, 150 μl of cell lysate is transferred in a 96 wells white plate and incubated for 10 minutes in the dark. Luminescence is read on a TECAN plate reader, Infinite M1000 (Tecan, Morrisville, NC).
The compound numbers correspond to the compound numbers in Table 1. […] Normalization of the results takes the donor's variation into account.

The target in assay [2] is T1, human GPR84 receptor (Homo sapiens, UniProt Q9NQS5).
T1 construct: host or cells: HEK293, transient transfection
Kind of assay: Gαi biosensor BRET assay in HEK293 cells (antagonism of ZQ-16). It is filed as cell-based. Conditions: for inhibition at 10 µM: HEK293, single concentration 10 μM (designated F); for IC50: HEK293 cells, antagonism of 200 nmol/L ZQ-16; for inhibition at 2 µM: HEK293, single concentration 2 μM (designated A). The method, boiled down: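 HEK293 cells transiently expressing human GPR84, Gαi2-Rluc8, GFP10-Gγ2 and Gβ1, in Tyrode's buffer pH 7.5. Compounds preincubated 5 min at 37° C, then 200 nmol/L ZQ-16 for 5 min at room temperature; coelenterazine 400A 5 μmol/L. BRET2 acceptor/donor ratio, background- and vehicle-corrected net BRET.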

The structures appear in SMILES notation.

T1 sequence (Q9NQS5 whole entry): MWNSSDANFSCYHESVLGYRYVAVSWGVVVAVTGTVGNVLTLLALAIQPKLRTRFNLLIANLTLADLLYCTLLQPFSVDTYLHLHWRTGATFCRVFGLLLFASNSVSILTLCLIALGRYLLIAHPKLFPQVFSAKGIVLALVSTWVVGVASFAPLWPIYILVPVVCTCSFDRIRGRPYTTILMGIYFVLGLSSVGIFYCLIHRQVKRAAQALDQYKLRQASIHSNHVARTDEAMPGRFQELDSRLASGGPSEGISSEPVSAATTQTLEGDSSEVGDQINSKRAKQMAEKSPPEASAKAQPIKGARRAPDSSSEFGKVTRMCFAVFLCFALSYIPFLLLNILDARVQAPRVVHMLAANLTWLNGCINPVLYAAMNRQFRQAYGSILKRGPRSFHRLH

In the case of `FC(F)(F)c1cc(C#CC2CC2)ccc1-c1cn(CC2CCCCO2)nn1` (stereo not drawn) [Compound I-81], in assay [1], the IC50 fell in the range of 300 to 1000 nM and the “Human Neutrophil migration inhibition - fold potency to Control Compound” value is reported as “C (IC50≤0.5-fold relative to Control Compound)”. In assay [2], the inhibition at 10 µM was in the range of 50 to 75% and the IC50 was above 3000 nM.
Consider `Cc1ccc(C#CC2CC2)cc1C(OC1CC1)c1cn(CC2OCC(C)(C)CO2)nn1` (stereo not drawn) [Compound I-644], for which, in assay [1], the IC50 was at most 300 nM and the “Human Neutrophil migration inhibition - fold potency to Control Compound” value is on record as “A (IC50 of >1.0-fold relative to Control Compound)”. In assay [2], the inhibition at 2 µM was above 75% and the IC50 was 300 to 1000 nM.
As for `Cc1cc(C#CCN2CCC(F)(F)CC2)ccc1-c1cn(CC2CCCCO2)nn1` (stereo not drawn) [Compound I-118], in assay [1], the IC50 was at most 300 nM and the “Human Neutrophil migration inhibition - fold potency to Control Compound” value is given as “C (IC50≤0.5-fold relative to Control Compound)”. In assay [2], this compound displayed an inhibition at 10 µM above 75% and an IC50 above 3000 nM.
With `CC(C)Oc1cc(C#CCN2CC(C)(C)C2)ccc1-c1cn(C[C@H]2CCCCO2)nn1` [Compound I-413], in assay [1], the IC50 is at most 300 nM and the “Human Neutrophil migration inhibition - fold potency to Control Compound” value is recorded as “B (IC50 of >0.5-≤1.0-fold relative to Control Compound)”. In assay [2], this compound showed an inhibition at 2 µM above 75% and an IC50 of 300 to 1000 nM.
For the compound `Cc1cc(C#CCNc2ccccc2)ccc1-c1cn(C[C@@H]2CCCCO2)nn1` (stereo in doubt) [Compound I-144], in assay [1], the IC50 lay in the range of 1000 to 3000 nM and the “Human Neutrophil migration inhibition - fold potency to Control Compound” value is “C (IC50≤0.5-fold relative to Control Compound)”. In assay [2], this compound registered an inhibition at 10 µM of at most 25% and an IC50 of 1000 to 3000 nM.
As to `Cc1cc(C#CCNCc2ccccc2)ccc1-c1cn(CC2CCCCO2)nn1` (stereo not drawn) [Compound I-86], the IC50 in assay [1] and in assay [2] was 300 to 1000 nM throughout. Also, the “Human Neutrophil migration inhibition - fold potency to Control Compound” value in assay [1] is given as “C (IC50≤0.5-fold relative to Control Compound)”.
On to `COC(c1cn(CC2CCCCO2)nn1)c1cc(C#CC2CC2)ccc1C` (stereo not drawn) [Compound I-417], for which, in assay [1], the IC50 is at most 300 nM and the “Human Neutrophil migration inhibition - fold potency to Control Compound” value is reported as “A (IC50 of >1.0-fold relative to Control Compound)”. Besides, in assay [2], the inhibition at 2 µM is above 75% and the IC50 is 300 to 1000 nM.
Turning to `Cc1cc(C#CCN(C)Cc2ccccc2)ccc1-c1cn(CC2CCCCO2)nn1` (stereo not drawn) [Compound I-76], in assay [1], the IC50 was at most 300 nM and the “Human Neutrophil migration inhibition - fold potency to Control Compound” value is given as “B (IC50 of >0.5-≤1.0-fold relative to Control Compound)”. Further, in assay [2] (HEK293, single concentration 5 μM (designated D)), the inhibition at 5 µM was above 75%. Besides, the IC50 in assay [2] fell in the range of 300 to 1000 nM.
On to `CC(C)Oc1cc(C#CC2CC2)cnc1-c1cn(CC2CCCCO2)nn1` (stereo not drawn) [Compound I-478], for which, in assay [1], the IC50 was at most 300 nM and the “Human Neutrophil migration inhibition - fold potency to Control Compound” value is on record as “B (IC50 of >0.5-≤1.0-fold relative to Control Compound)”. In assay [2], this compound displayed an inhibition at 10 µM above 75% and an IC50 of at most 300 nM.
For `Cc1cc(N2CCN(Cc3ccccn3)CC2)ccc1-c1cn(C[C@@H]2CCC(F)(F)CO2)nn1` (stereo in doubt) [Compound I-636], in assay [1], the IC50 is at most 300 nM and the “Human Neutrophil migration inhibition - fold potency to Control Compound” value was “A (IC50 of >1.0-fold relative to Control Compound)”. In addition, in assay [2], the inhibition at 10 µM is above 75% and the IC50 is at most 300 nM.
Turning to `Cc1cc(C#CCN2CC(C)(C)C2)ccc1-c1cn(CC2CCCCO2)nn1` (stereo not drawn) [Compound I-119], in assay [1], the IC50 fell in the range of 300 to 1000 nM and the “Human Neutrophil migration inhibition - fold potency to Control Compound” value is recorded as “C (IC50≤0.5-fold relative to Control Compound)”. Also, the IC50 in assay [2] fell in the range of 1000 to 3000 nM.
Turning to `Cc1cc(N2CC(C)(OCc3ccccn3)C2)ccc1-c1cn(CC2CCCCO2)nn1` (stereo not drawn) [Compound I-452], in assay [1], the IC50 was at most 300 nM and the “Human Neutrophil migration inhibition - fold potency to Control Compound” value is reported as “A (IC50 of >1.0-fold relative to Control Compound)”. In assay [2], this compound registered an inhibition at 10 µM above 75% and an IC50 of 300 to 1000 nM.
In the case of `Cc1cc(N2CCN(Cc3ccccn3)CC2)ccc1-c1cn(C[C@H]2CCCCO2)nn1` [Compound I-423], in assay [1], the IC50 was at most 300 nM and the “Human Neutrophil migration inhibition - fold potency to Control Compound” value was “A (IC50 of >1.0-fold relative to Control Compound)”. Also, in assay [2] (HEK293, single concentration 6.00 μM (designated D°)), the inhibition at 6 µM is above 75%. The IC50 in assay [2] was in the range of 300 to 1000 nM.
Take `Cc1cc(N2CC(C)(NCc3ccccn3)C2)ccc1-c1cn(CC2CCCCO2)nn1` (stereo not drawn) [Compound I-441]: in assay [1], the IC50 was at most 300 nM and the “Human Neutrophil migration inhibition - fold potency to Control Compound” value was “A (IC50 of >1.0-fold relative to Control Compound)”. In assay [2], the inhibition at 10 µM was 50 to 75% and the IC50 is 1000 to 3000 nM.
On to `Cc1cc(N2CCN(Cc3ccccn3)CC2)ccc1-c1cn(CC2OCC(C)(C)CO2)nn1` [Compound I-531], for which, in assay [1], the IC50 was at most 300 nM and the “Human Neutrophil migration inhibition - fold potency to Control Compound” value was “A (IC50 of >1.0-fold relative to Control Compound)”. In addition, in assay [2], the inhibition at 10 µM was above 75% and the IC50 is at most 300 nM.
`Cc1cc(N2CCN(Cc3ccccn3)CC2)ccc1-c1cn(CC2CCC(C)(C)CO2)nn1` (stereo not drawn) [Compound I-562]: in assay [1], the IC50 is at most 300 nM and the “Human Neutrophil migration inhibition - fold potency to Control Compound” value is “A (IC50 of >1.0-fold relative to Control Compound)”. In assay [2], the inhibition at 10 µM was above 75% and the IC50 was at most 300 nM.
In the case of `Cc1ccc(C#CC2CC2)cc1-n1nc(CC2CCCCO2)oc1=O` (stereo not drawn) [Compound I-14], in assay [1], the IC50 is at most 300 nM and the “Human Neutrophil migration inhibition - fold potency to Control Compound” value was “A (IC50 of >1.0-fold relative to Control Compound)”. In assay [2], this compound yielded an inhibition at 10 µM above 75% and an IC50 of 1000 to 3000 nM.
In the case of `Cc1cc(C#CCn2cc(-c3ccc(N(C)C)cc3)nn2)ccc1-c1cn(CC2CCCCO2)nn1` (stereo not drawn) [Compound I-456], in assay [1], the IC50 was at most 300 nM and the “Human Neutrophil migration inhibition - fold potency to Control Compound” value is reported as “A (IC50 of >1.0-fold relative to Control Compound)”. Further, in assay [2], the inhibition at 2 µM was above 75% and the IC50 was at most 300 nM.
Turning to `CN(C)c1cc(N2CC(C)(CO)C2)ccc1-c1cn(C[C@@H]2CC(C)(C)CO2)nn1` (stereo in doubt) [Compound I-589], in assay [1], the IC50 was at most 300 nM and the “Human Neutrophil migration inhibition - fold potency to Control Compound” value is reported as “A (IC50 of >1.0-fold relative to Control Compound)”. The same compound came in with an inhibition at 1 µM in assay [2] (HEK293, single concentration 1 μM (designated A°)) above 75%. This compound also displayed an IC50 in assay [2] of at most 300 nM.
With `CCc1cc(N2CC(C)(C)C2)ccc1-c1cn(CC2OCC(C)(C)CO2)nn1` [Compound I-618], in assay [1], the IC50 was at most 300 nM and the “Human Neutrophil migration inhibition - fold potency to Control Compound” value was “A (IC50 of >1.0-fold relative to Control Compound)”. Further, in assay [2], the inhibition at 10 µM is above 75% and the IC50 was at most 300 nM.
For the compound `CCc1cc(C#CCNc2ccccc2)cnc1-c1cn(CC2CC(C)(C)CO2)nn1` (stereo not drawn) [Compound I-474], in assay [1], the IC50 was at most 300 nM and the “Human Neutrophil migration inhibition - fold potency to Control Compound” value was “A (IC50 of >1.0-fold relative to Control Compound)”. Also, in assay [2], the inhibition at 2 µM was above 75% and the IC50 fell in the range of 300 to 1000 nM.
In assay [2], `COCCn1cc(-c2ccc(C#CC3CC3)cc2C)nn1` [Compound I-104] registered an inhibition at 10 µM of at most 25%.
In turn, `Cc1cc(C#CCN2CCN(c3ccccc3)CC2)ccc1-c1cn(CC2CCCCO2)nn1` (stereo not drawn) [Compound I-867] gave an IC50 in assay [2] of at most 300 nM.
